In article PMC6331977, “Bioassay-Guided Isolation and Identification of Xanthine Oxidase Inhibitory Constituents from the Leaves of Perilla frutescens” (Molecules, 2015):

Key:
xanthine oxidase (XO) [1] = biological target: T1, xanthine oxidase (XO) (Bos taurus, UniProt P80457); experiment: Assay of XO inhibitory modes of action (enzyme kinetics, Lineweaver-Burk plots); settings: for Mode of Inhibition: Lineweaver-Burk plots
xanthine oxidase (XO) [2] = biological target: T1, xanthine oxidase (XO); experiment: Assay of XO activity (uric acid formation determined by HPLC); type: biochemical; parameters: purchased Sigma-Aldrich Chemicals (St. Louis, MO, USA); settings: for XO inhibitory activity (in words): in vitro; for IC50: xanthine as substrate, 25 °C, pH 7.5, uric acid by HPLC

T1 sequence (P80457 whole entry): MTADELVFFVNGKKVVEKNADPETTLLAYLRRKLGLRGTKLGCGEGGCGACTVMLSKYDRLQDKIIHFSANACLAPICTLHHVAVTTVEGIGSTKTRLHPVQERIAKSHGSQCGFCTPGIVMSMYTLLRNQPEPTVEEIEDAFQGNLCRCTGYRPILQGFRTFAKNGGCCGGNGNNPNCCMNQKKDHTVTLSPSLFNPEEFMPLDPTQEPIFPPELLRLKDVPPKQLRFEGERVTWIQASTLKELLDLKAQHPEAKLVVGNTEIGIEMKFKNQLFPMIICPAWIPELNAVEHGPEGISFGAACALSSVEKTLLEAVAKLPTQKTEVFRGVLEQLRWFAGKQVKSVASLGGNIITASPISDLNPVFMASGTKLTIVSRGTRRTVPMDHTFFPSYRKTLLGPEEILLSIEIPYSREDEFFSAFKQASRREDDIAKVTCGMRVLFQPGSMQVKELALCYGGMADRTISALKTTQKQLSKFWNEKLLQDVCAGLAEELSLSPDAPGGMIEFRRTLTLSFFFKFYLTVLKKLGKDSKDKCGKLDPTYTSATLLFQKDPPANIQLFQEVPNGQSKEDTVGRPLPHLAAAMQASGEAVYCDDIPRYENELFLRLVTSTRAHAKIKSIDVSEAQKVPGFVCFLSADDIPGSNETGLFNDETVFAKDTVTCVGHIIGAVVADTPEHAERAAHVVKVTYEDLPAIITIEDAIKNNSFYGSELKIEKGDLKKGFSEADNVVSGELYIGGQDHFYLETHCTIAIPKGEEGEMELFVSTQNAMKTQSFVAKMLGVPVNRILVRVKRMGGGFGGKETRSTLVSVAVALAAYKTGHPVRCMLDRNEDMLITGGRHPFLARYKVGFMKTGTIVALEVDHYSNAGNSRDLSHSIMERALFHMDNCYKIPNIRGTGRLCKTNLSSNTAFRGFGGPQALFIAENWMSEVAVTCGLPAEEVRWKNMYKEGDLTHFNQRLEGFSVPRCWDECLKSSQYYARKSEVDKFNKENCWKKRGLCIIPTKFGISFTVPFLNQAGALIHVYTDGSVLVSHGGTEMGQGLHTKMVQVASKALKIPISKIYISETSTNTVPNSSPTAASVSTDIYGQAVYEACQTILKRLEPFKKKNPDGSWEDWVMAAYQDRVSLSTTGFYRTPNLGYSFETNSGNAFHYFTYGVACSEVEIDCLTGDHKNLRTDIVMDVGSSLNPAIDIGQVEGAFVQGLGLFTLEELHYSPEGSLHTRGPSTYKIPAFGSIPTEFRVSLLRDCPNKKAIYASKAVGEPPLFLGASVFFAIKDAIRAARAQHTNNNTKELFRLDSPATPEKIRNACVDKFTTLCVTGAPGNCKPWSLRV

Row | Compound | Mode of Inhibition (xanthine oxidase (XO) [1]) | Ki (xanthine oxidase (XO) [1]) [µM] | Mode of Inhibition (xanthine oxidase (XO) [1]; listed as apigenin) | IC50 (xanthine oxidase (XO) [2]) [µM] | Mode of Inhibition (xanthine oxidase (XO) [1]; listed as allopurinol) | XO inhibitory activity (in words) (xanthine oxidase (XO) [2])
1 | Oc1ncnc2[nH]ncc12 [Allopurinol, reference compound] | Competitive |  |  |  | competitive inhibitions | 
2 | O=c1cc(-c2ccc(O)cc2)oc2cc(O)cc(O)c12 [Apigenin, apigenin] | Mixed | 0.11 | mixed inhibition mode | 0.44 |  | could significantly inhibit the production of uric acid
3 | O=C(O)/C=C/c1ccc(O)c(O)c1 [Caffeic acid, caffeic acid] |  | 9.22 |  | 121 |  | 

Continued, in another order:

Row | Mode of Inhibition (xanthine oxidase (XO) [1]) | Ki (xanthine oxidase (XO) [1]) [µM] | Mode of Inhibition (xanthine oxidase (XO) [1]; listed as apigenin) | IC50 (xanthine oxidase (XO) [2]) [µM] | Compound | Mode of Inhibition (xanthine oxidase (XO) [1]; listed as allopurinol) | XO inhibitory activity (in words) (xanthine oxidase (XO) [2])
4 | Competitive | 2.85 |  | 26.6 | COC(=O)[C@@H](Cc1ccc(O)c(O)c1)OC(=O)/C=C/c1ccc(O)c(O)c1 [Methyl rosmarinate, methyl rosmarinate] |  | could significantly inhibit the production of uric acid
5 | Competitive | 26.2 |  | 91.7 | O=C(/C=C/c1ccc(O)c(O)c1)O[C@H](Cc1ccc(O)c(O)c1)C(=O)O [Rosmarinic acid, rosmarinic acid] |  | weak XO inhibitory activities
6 | Competitive | 5.05 |  | 31.3 | C=COC(=O)/C=C/c1ccc(O)c(O)c1 [Vinyl caffeate, vinyl caffeate] |  | could significantly inhibit the production of uric acid
